Marks after values point to notes of the source that are not given here.
How the values were obtained:
[1] = system: luciferase expression in the liver; experiment: Luciferase mRNA in vivo evaluation using lipid nanoparticle compositions (liver luciferase expression); design: species or system mice; conditions: tail vein injection, ng luciferase/g liver 4 hours after administration; for Liver Luc @ 0.3 mg/kg: 0.3 mg mRNA/kg; for Liver Luc @ 1.0 mg/kg: 1.0 mg mRNA/kg
Experimental: (§1) A lipid of structure (I), DSPC, cholesterol and PEG-lipid are solubilized in ethanol at a molar ratio of 50:10:38.5:1.5 or 47.5:10:40.7:1.8. Lipid nanoparticles (LNP) are prepared at a total lipid to mRNA weight ratio of approximately 10:1 to 40:1. Briefly, the mRNA is diluted to 0.2 mg/mL in 10 to 50 mM citrate buffer, pH 4 or 10 to 25 mM acetate buffer, pH 4. Syringe pumps are used to mix the ethanolic lipid solution with the mRNA aqueous solution at a ratio of about 1:5 to 1:3 (vol/vol) with total flow rates above 15 mL/min. The ethanol is then removed, and the external buffer replaced with PBS by dialysis. Finally, the lipid nanoparticles are filtered through a 0.2 µm pore sterile filter.
Studies are performed in 6-8-week-old female C57BL/6 mice (Charles River) or 8-10-week-old CD-1 (Harlan) mice (Charles River) according to guidelines established by an institutional animal care committee (ACC) and the Canadian Council on Animal Care (CCAC). Varying doses of mRNA-lipid nanoparticle are systemically administered by tail vein injection and animals euthanized at a specific time point (e.g., 4 hours) post-administration. Liver and spleen are collected in pre-weighed tubes, weights determined, immediately snap frozen in liquid nitrogen, and stored at −80° C. until processing for analysis.
For liver, approximately 50 mg is dissected for analyses in a 2 mL FastPrep tubes (MP Biomedicals, Solon OH). ¼″ ceramic sphere (MP Biomedicals) is added to each tube and 500 μL of Glo Lysis Buffer—GLB (Promega, Madison WI) equilibrated to room temperature is added to liver tissue. Liver tissues are homogenized with the FastPrep24 instrument (MP Biomedicals) at 2×6.0 m/s for 15 seconds. Homogenate is incubated at room temperature for 5 minutes prior to a 1:4 dilution in GLB and assessed using SteadyGlo Luciferase assay system (Promega). Specifically, 50 μL of diluted tissue homogenate is reacted with 50 μL of SteadyGlo substrate, shaken for 10 seconds followed by 5-minute incubation and then quantitated using a CentroXS^3 LB 960 luminometer (Berthold Technologies, Germany). The amount of protein assayed is determined by using the BCA protein assay kit (Pierce, Rockford, IL). Relative luminescence units (RLU) are then normalized to total μg protein assayed. To convert RLU to ng luciferase a standard curve is generated with QuantiLum Recombinant Luciferase (Promega).
The FLuc mRNA (L-6107) from Trilink Biotechnologies will express a luciferase protein, originally isolated from the firefly, photinus pyralis. FLuc is commonly used in mammalian cell culture to measure both gene expression and cell viability. It emits bioluminescence in the presence of the substrate, luciferin. This capped and polyadenylated mRNA is fully substituted with 5-methylcytidine and pseudouridine.
(§2) Representative compounds of the disclosure shown in Table 2 were formulated using the following molar ratio: 50% cationic lipid/10% distearoylphosphatidylcholine (DSPC)/38.5% Cholesterol/1.5% PEG lipid 2-[2-(ω-methoxy(polyethyleneglycol2000)ethoxy]-N,N-ditetradecylacetamide) or 47.5% cationic lipid/10% DSPC/40.7% Cholesterol/1.8% PEG lipid. Activity was determined by measuring luciferase expression in the liver 4 hours following administration via tail vein injection as described in Example 1 or by measuring the amount of human IgG in mouse serum as described in Example 2. The activity was compared at a dose of 1.0 or 0.5 or 0.3 mg mRNA/kg and expressed as ng luciferase/g liver measured 4 hours after administration, as described in Example 1 or as μg IgG/mL serum measured 24 hours after administration, as described in Example 2. Compound numbers in Table 2 refer to the compound numbers of Table 1.

[2] = Determination of pKa of formulated lipids (TNS fluorescence assay in lipid nanoparticles); assay type: physicochemical; conditions: lipid nanoparticles (compound/DSPC/cholesterol/PEG-lipid), lipid formulated in LNP (cationic lipid/DSPC/cholesterol/PEG-lipid), pH of half-maximal fluorescence
Experimental: As described elsewhere, the pKa of formulated lipids is correlated with the effectiveness of LNPs for delivery of nucleic acids (see Jayaraman et al, Angewandte Chemie, International Edition (2012), 51(34), 8529-8533; Semple et al, Nature Biotechnology 28, 172-176 (2010)). In some embodiments, the preferred range of pKa is ˜5 to ˜7. The pKa of each lipid is determined in lipid nanoparticles using an assay based on fluorescence of 2-(p-toluidino)-6-napthalene sulfonic acid (TNS). Lipid nanoparticles comprising compound of structure (I)/DSPC/cholesterol/PEG-lipid (50/10/38.5/1.5 or 47.5:10:40.7:1.8 mol %) in PBS at a concentration of 0.4 mM total lipid are prepared using the in-line process as described in Example 1. TNS is prepared as a 100 μM stock solution in distilled water. Vesicles are diluted to 24 μM lipid in 2 mL of buffered solutions containing 10 mM HEPES, 10 mM MES, 10 mM ammonium acetate, and 130 mM NaCl, where the pH ranged from 2.5 to 11. An aliquot of the TNS solution is added to give a final concentration of 1 μM and following vortex mixing fluorescence intensity is measured at room temperature in a SLM Aminco Series 2 Luminescence Spectrophotometer using excitation and emission wavelengths of 321 nm and 445 nm. A sigmoidal best fit analysis is applied to the fluorescence data and the pKa is measured as the pH giving rise to half-maximal fluorescence intensity.

human IgG in mouse serum = experiment: Immunoglobulin G (IgG) mRNA in vivo evaluation using lipid nanoparticle compositions (human IgG ELISA); design: species or system mice; conditions: tail vein injection, μg IgG/mL serum 24 hours after administration; for Serum IgG @ 0.3 mg/kg: 0.3 mg mRNA/kg; for Serum IgG @ 1.0 mg/kg: 1.0 mg mRNA/kg
Experimental: as §1
Studies are performed in 6-8-week-old CD-1/ICR mice (Envigo) according to guidelines established by an institutional animal care committee (ACC) and the Canadian Council on Animal Care (CCAC). Varying doses of mRNA-lipid nanoparticle are systemically administered by tail vein injection and animals euthanized at a specific time point (e.g., 24 hours) post-administration. The whole blood is collected, and the serum subsequentially separated by centrifuging the tubes of the whole blood at 2000×g for 10 minutes at 4° C. and stored at −80° C. until use for analysis.
For immunoglobulin G (IgG) ELISA (Life Diagnostics Human IgG ELISA kit), the serum samples are diluted at 100 to 15000 folds with 1× diluent solution. 100 μL of diluted serum is dispensed into anti-human IgG coated 96-well plate in duplicate alongside human IgG standards and incubated in a plate shaker at 150 rpm at 25° C. for 45 minutes. The wells are washed 5 times with 1× wash solution using a plate washer (400 μL/well). 100 μL of HRP conjugate is added into each well and incubated in a plate shaker at the same condition above. The wells are washed 5 times again with 1× wash solution using a plate washer (400 μL/well). 100 μL of TMB reagent is added into each well and incubated in a plate shaker at the same condition above. The reaction is stopped by adding 100 μL of Stop solution to each well. The absorbance is read at 450 nm (A450) with a microplate reader. The amount of human IgG in mouse serum is determined by plotting A450 values for the assay standard against human IgG concentration.
as §2

SMILES: CCCCCCCCCCCCCC(=O)NCCCCN(C)CCN(CCCCCC(=O)OCC(CCCCCC)CCCCCCCC)CCCCCC(=O)OCC(CCCCCC)CCCCCCCC (centres unmarked) [Compound I-3, bis(2-hexyldecyl) 6,6′-((2-(methyl(4-tetradecanamidobutyl)amino)ethyl)azanediyl)dihexanoate]
- Liver Luc, determined at 0.5 mg/kg ([1]; 0.5 mg mRNA/kg (footnote *)): 31 ± 6* ng/g
- pKa [2]: 6.7

SMILES: CCCCCCCCC(CCCCCC)C(=O)OCCCCCCN(CCCCCCOC(=O)C(CCCCCC)CCCCCCCC)CCN(C)CCCC(=O)N(CCCC)CCCC (centres unmarked) [Compound I-8, ((2-((4-(dibutylamino)-4-oxobutyl)(methyl)amino)ethyl)azanediyl)bis(hexane-6,1-diyl)bis(2-hexyldecanoate)]
- Liver Luc @ 0.3 mg/kg [1]: 16110 ± 2654 ng/g
- Liver Luc @ 1.0 mg/kg [1]: 56927 ± 16125 ng/g
- pKa [2]: 6.13

SMILES: CCCCCCCCC(CCCCCC)COC(=O)CCCCCN(CCCCCC(=O)OCC(CCCCCC)CCCCCCCC)CCCN(C)CCCCC(=O)OC (centres unmarked) [Compound I-50, Bis(2-hexyldecyl) 6,6′-((3-((5-methoxy-5-oxopentyl)(methyl)amino)propyl)azanediyl)dihexanoate]
- Serum IgG @ 0.3 mg/kg (human IgG in mouse serum): 15.4 ± 2.6 µg/mL
- Serum IgG @ 1.0 mg/kg (human IgG in mouse serum): 91.5 ± 19.7 µg/mL
- pKa [2]: 6.46

SMILES: CCCCCCCCC(CCCCCC)COC(=O)CCCCCN(CCCCCC(=O)OCC(CCCCCC)CCCCCCCC)CCN(C)CCCCCC(=O)NCC(CC)CCCC (centres unmarked) [Compound I-11, bis(2-hexyldecyl) 6,6′-((2-((6-((2-ethylhexyl)amino)-6-oxohexyl)(methyl)amino)ethyl)azanediyl)dihexanoate]
- Liver Luc @ 0.3 mg/kg [1]: 16601 ± 5871 ng/g
- Liver Luc @ 1.0 mg/kg [1]: 66075 ± 18868 ng/g
- pKa [2]: 6.27

SMILES: CCCCCCCC(=O)NCCCCN(C)CCN(CCCCCCCCCOC(=O)C(CCCC)CCCCCC)CCCCCCCCCOC(=O)C(CCCC)CCCCCC (centres unmarked) [Compound I-6, ((2-(methyl(4-octanamidobutyl)amino)ethyl)azanediyl)bis(nonane-9,1-diyl)bis(2-butyloctanoate)]
- Liver Luc @ 0.3 mg/kg [1]: 12241 ± 3108 ng/g
- Liver Luc @ 1.0 mg/kg [1]: 67044 ± 44033 ng/g
- pKa [2]: 6.56

SMILES: CCCCCCCCC(=O)NCCCN(C)CCN(CCCCCCCC(=O)OCC(CCCCCC)CCCCCCCC)CCCCCCCC(=O)OCC(CCCCCC)CCCCCCCC (centres unmarked) [Compound I-4, bis(2-hexyldecyl) 8,8′-((2-(methyl(3-nonanamidopropyl)amino)ethyl)azanediyl)dioctanoate]
- Liver Luc @ 0.3 mg/kg [1]: 7747 ± 1565 ng/g
- Liver Luc @ 1.0 mg/kg [1]: 24964 ± 8175 ng/g
- pKa [2]: 6.7

SMILES: CCCCCCCCCCNC(=O)CCCCCN(C)CCN(CCCCCC(=O)OCC(CCCCCC)CCCCCCCC)CCCCCC(=O)OCC(CCCCCC)CCCCCCCC (centres unmarked) [Compound I-7, bis(2-hexyldecyl) 6,6′-((2-((6-(decylamino)-6-oxohexyl)(methyl)amino)ethyl)azanediyl)dihexanoate]
- Liver Luc @ 0.3 mg/kg [1]: 10812 ± 2335 ng/g
- Liver Luc @ 1.0 mg/kg [1]: 44836 ± 12026 ng/g
- pKa [2]: 6.57

SMILES: CCCCCCCCC(CCCCCC)COC(=O)CCCCCCCN(CCCCCCCC(=O)OCC(CCCCCC)CCCCCCCC)CCN(C)CCCCNC(=O)CCCCCCC (centres unmarked) [Compound I-5, bis(2-hexyldecyl) 8,8′-((2-(methyl(4-octanamidobutyl)amino)ethyl)azanediyl)dioctanoate]
- Liver Luc @ 0.3 mg/kg [1]: 6538 ± 11243 ng/g
- Liver Luc @ 1.0 mg/kg [1]: 43609 ± 9207 ng/g
- pKa [2]: 6.68

SMILES: CCCCCCCCC(CCCCCC)C(=O)OCCCCCCN(CCCCCCOC(=O)C(CCCCCC)CCCCCCCC)CCN(C)CCCC(=O)N(CC)CC (centres unmarked) [Compound I-52, 6-((2-((3-(N,N-diethylcarbamoyl)propyl)-n-methylamino)ethyl)(6-(1-hexylnonylcarbonyloxy)hexyl)amino)hexyl 2-hexyldecanoate]
- Serum IgG @ 0.3 mg/kg (human IgG in mouse serum): 6.4 ± 2.6 µg/mL
- Serum IgG @ 1.0 mg/kg (human IgG in mouse serum): 35.4 ± 11.1 µg/mL
- pKa [2]: 6.71

SMILES: CCCCCCCCC(CCCCCC)C(=O)OCCCCCCN(CCCCCCOC(=O)C(CCCCCC)CCCCCCCC)CCCCN(C)CCCCC(=O)N(CCCCCCCC)CCCCCCCC (centres unmarked) [Compound I-51, ((4-((5-(dioctylamino)-5-oxopentyl)(methyl)amino)butyl)azanediyl)bis(hexane-6,1-diyl)bis(2-hexyldecanoate)]
- Serum IgG @ 0.3 mg/kg (human IgG in mouse serum): 31.9 ± 6.5 µg/mL
- Serum IgG @ 1.0 mg/kg (human IgG in mouse serum): 131.5 ± 18.1 µg/mL
- pKa [2]: 6.4

SMILES: CCCCCCCCC(CCCCCC)COC(=O)CCCCCN(CCCCCC(=O)OCC(CCCCCC)CCCCCCCC)CCN(C)CCCCNC(=O)CCCCCCC (centres unmarked) [Compound I-1, bis(2-hexyldecyl) 6,6′-((2-(methyl(4-octanamidobutyl)amino)ethyl)azanediyl)dihexanoate]
- Liver Luc @ 0.3 mg/kg [1]: 5497 ± 1457 ng/g
- Liver Luc @ 1.0 mg/kg [1]: 13160 ± 5805 ng/g
- pKa [2]: 6.64

SMILES: CCCCCCCCC(CCCCCC)COC(=O)CCCCCN(CCCCCC(=O)OCC(CCCCCC)CCCCCCCC)CCN(C)CCCCCC(=O)N(C)CCCCCCCC (centres unmarked) [Compound I-10, bis(2-hexyldecyl) 6,6′-((2-(methyl(6-(methyl(octyl)amino)-6-oxohexyl)amino)ethyl)azanediyl)dihexanoate]
- Liver Luc @ 0.3 mg/kg [1]: 9794 ± 1750 ng/g
- Liver Luc @ 1.0 mg/kg [1]: 43271 ± 18103 ng/g
- pKa [2]: 6.33
